From PubChem BioAssay AID1053151 (Broad Institute, 2014)

Columns and labels:
[1] = reduction of secreted ApoB protein, dose response, orthogonal assay for Trib1 inducer project, cell-based, HepG2, ELISA, plate reader, cherry-pick (AID 1053151); settings: HepG2 secreted ApoB ELISA, 24 h, ApoB inhibition at active concentration, stronger effect = higher value
[2] = test system: HepG2 secreted ApoB ELISA, 24 h; assay: as above

SMILES | inhibition ([1]; at 0.02 µM) | active concentration (lower = more potent) [2] | inhibition ([1]; at 3.5 µM)
CN1C(=O)c2cc(NC(=O)c3ccc(C(F)(F)F)cc3)ccc2OC[C@@H]2O[C@H](CC(=O)NC3Cc4ccccc4C3)CC[C@@H]21 | 99% | 20 nM | 
CN1C(=O)c2cc(NC(=O)c3ccc(C(F)(F)F)cc3)ccc2OC[C@@H]2O[C@@H](CC(=O)NC3Cc4ccccc4C3)CC[C@@H]21 |  | 3500 nM | 90%
